Laboratory results: patent US10155027B2, “Alpha-galactosidase A and 1-deoxygalactonojirimycin co-formulation for the treatment of fabry disease” (Amicus Therapeutics, Inc., priority 2012, dated 2018)
Structures can show the parent of a compound that is named as a salt. Where two headings read alike, the source gives them in different places.

What was measured:
[1] = Phase 1 single ascending dose 2-hour IV infusion PK in healthy subjects (Cohorts 1-3); type: in vivo, human; conditions: for Vd / AUC(0-t) / AUC(0-inf) / Tmax / half-life / Cmax: human, plasma; for Vd: iv; for AUC(0-t): read-out: AUC0-t (geometric mean)
Description: (§1) Healthy volunteers received migalastat HCl (DGJ HCl) via the intravenous (IV) route of administration to evaluate safety, tolerability, and pharmacokinetics. Another study was performed to determine the absolute bioavailability of migalastat after an oral capsule dose as compared to an IV administered dose of migalastat HCl in healthy volunteers. The absolute bioavailability arm was added to determine the exposure ratio of a 150 mg oral dose relative to a 150 mg dose administered as an IV infusion.
(§2) Type of Study: This Phase 1 study was a single-center study consisting of 2 designs. Cohorts 1, 2, and 3 were performed according to a randomized, double-blind, placebo-controlled, single ascending dose (SAD) IV study design to evaluate the safety, tolerability, and PK of IV administered migalastat HCl or IV administered placebo in healthy subjects. Cohort 4 was an open-label, randomized two-way crossover arm designed to assess the absolute bioavailability of orally administered migalastat HCl relative to IV administered migalastat HCl in healthy subjects.
Cohorts 1, 2, 3: Subjects in Cohorts 1, 2, and 3 received IV administered single ascending doses of migalastat HCl. Seven subjects were enrolled into each cohort (5 subjects randomized to migalastat HCl and 2 subjects randomized to placebo). Dosing of Cohorts 1, 2, and 3 was staggered to allow for safety and tolerability review before proceeding with the next group. Therefore, Cohorts 1, 2, and 3 were each divided into 2 sub-groups: Group A (2 subjects randomized to migalastat HCl and 1 subject randomized to placebo) and Group B (3 subjects randomized to migalastat HCl and 1 subject randomized to placebo). Subjects in Group B were dosed the day following completion of Group A dosing. Except for Cohort 3B, which was dosed 31 days after Cohort 3A because an interim PK review was performed on emerged data from Cohort 3A. Additionally, initiation of infusion was staggered by 60 minutes for Group A subjects, and by 30 minutes for Group B subjects (see FIG. 12).
Subjects enrolled in Cohorts 1, 2, and 3 were randomized to receive one of the following doses of migalastat HCl (n=5) or placebo (n=2): […]

[2] = General toxicology NOAEL, monkey; type: in vivo
[3] = Phase 1 crossover absolute bioavailability, 150 mg oral capsule vs 150 mg IV infusion (Cohort 4); type: in vivo, human; conditions: for Vd: iv, 150 mg; for Cmax: read-out: Cmax (geometric mean); for AUC(0-t): read-out: AUC0-t (geometric mean); for AUC(0-inf): read-out: AUC0-∞ (geometric mean); for Tmax: read-out: tmax (median); for half-life: read-out: t½ (arithmetic mean) (converted)
Description: as §1, §2
Cohort 4 consisted of 2 sequential treatment periods with a washout period of 7 days between study drug administrations (FIG. 13). Cohort 4 enrolled 10 subjects all of whom received active drug (no placebo was administered). Cohort 4 was randomized such that 5 subjects received the oral formulation and 5 subjects received the IV formulation during Period 1, followed by the alternate formulation during Period 2. • * During Period 1, all Day −1 through Day 3 assessments were performed. ** The washout period was 7 days. *** During Period 2, subjects repeated all Day −1 through Day 3 assessments.
Cohort 4: Period 1: 150 mg migalastat HCl capsule (n=5) or 150 mg migalastat HCl via IV infusion (n=5). Period 2: 150 mg migalastat HCl capsule (n=5) or 150 mg migalastat HCl via IV infusion (n=5)
The migalastat HCl used for infusion was 50 mg/ml and the placebo was 0.9% sodium chloride. The oral migalastat HCl was administered as a 150 mg gelatin […].

[4] = not given; remark: listed apart in the source
[5] = General toxicology NOAEL, rat; type: in vivo
[6] = Phase 2a study of oral migalastat HCl co-administered with agalsidase in Fabry patients; type: in vivo, human; conditions: 23 Fabry patients; single oral 150 mg with 0.2, 0.5, and 1.0 mg/kg agalsidase
[7] = 1.0 mg/kg vs 0.3 mg/kg, theoretical 3.33
[8] = 10 mg/kg vs 0.3 mg/kg, theoretical 33.3
[9] = predicted human exposure at 0.3 mg/kg IV
[10] = predicted human exposure at 10.0 mg/kg IV
[11] = predicted exposure at 0.3 mg/kg IV
[12] = predicted exposure at 10.0 mg/kg IV

In the case of `OC[C@H]1NC[C@H](O)[C@@H](O)[C@H]1O` [migalastat HCl, (2R,3S,4R,5S)-2-(hydroxymethyl) piperdine-3,4,5-triol], the “CLT (arithmetic mean)” value ([1]; 0.3 mg/kg IV) is reported as 6.59 L/h, the “CLT (arithmetic mean)” value ([1]; 1.0 mg/kg IV) is reported as 7.68 L/h and the “Ratio Test/Reference, AUC0-t” value [1, 7] is reported as 3.01. For the same compound, the “Ratio Test/Reference, AUC0-∞” value [1, 7] was 2.99, the “Ratio Test/Reference, Cmax” value [1, 7] was 2.89 and the “CLT (arithmetic mean)” value ([1]; 10 mg/kg IV) was 7.40 L/h. The “Ratio Test/Reference, AUC0-t” value [1, 8] was 35.5, the “Ratio Test/Reference, AUC0-∞” value [1, 8] was 35.2 and the “Ratio Test/Reference, Cmax” value [1, 8] was 33.9. The “dose proportionality of plasma exposure parameters” value ([1]; 0.3 to 10 mg/kg single ascending IV dose range) was “appeared to be dose proportional”, the Vd ([1]; 0.3 mg/kg, 0.3 mg/kg IV, read-out: Vss (arithmetic mean)) was 17.9 L and the Vd ([1]; 0.3 mg/kg, 0.3 mg/kg IV, read-out: Vz (arithmetic mean)) was 19.9 L. The Vd ([1]; 1 mg/kg, 1.0 mg/kg IV, read-out: Vss (arithmetic mean)) was 24.2 L, the Vd ([1]; 1 mg/kg, 1.0 mg/kg IV, read-out: Vz (arithmetic mean)) was 35 L and the Vd ([1]; 10 mg/kg, 10 mg/kg IV, read-out: Vss (arithmetic mean)) was 27.2 L. The Vd ([1]; 10 mg/kg, 10 mg/kg IV, read-out: Vz (arithmetic mean)) was 107 L, the Vd ([1]; 0.3 to 10 mg/kg IV, read-out: Vss, range over doses) was 17.9 to 27.2 L and the Vd ([1]; 0.3 to 10 mg/kg IV, read-out: arithmetic mean Vz, range over doses) was 19.9 to 107 L. For the same compound, the AUC(0-t) ([1]; 0.3 mg/kg IV) was 2280 ng·h/mL, the AUC(0-inf) ([1]; 0.3 mg/kg IV, read-out: AUC0-∞ (geometric mean)) was 2320 ng·h/mL and the Tmax ([1]; 0.3 mg/kg IV, read-out: tmax (median)) was 1.93 h. For the same compound, the half-life ([1]; 0.3 mg/kg IV, read-out: t½ (arithmetic mean) (converted)) was 2.09 h, the AUC(0-t) ([1]; 1.0 mg/kg IV) was 6860 ng·h/mL and the AUC(0-inf) ([1]; 1.0 mg/kg IV, read-out: AUC0-∞ (geometric mean)) was 6920 ng·h/mL. For the same compound, the Tmax ([1]; 1.0 mg/kg IV, read-out: tmax (median)) was 1.93 h, the half-life ([1]; 1.0 mg/kg IV, read-out: t½ (arithmetic mean) (converted)) was 3.21 h and the AUC(0-t) ([1]; 10 mg/kg IV) was 81100 ng·h/mL. For the same compound, the AUC(0-inf) ([1]; 10 mg/kg IV, read-out: AUC0-∞ (geometric mean)) was 81400 ng·h/mL, the Tmax ([1]; 10 mg/kg IV, read-out: tmax (median)) was 1.93 h and the half-life ([1]; 10 mg/kg IV, read-out: t½ (arithmetic mean) (converted)) was 10 h. It also gave a half-life ([1]; 0.3 to 10 mg/kg IV, read-out: arithmetic mean apparent terminal t½, range over doses) of 2.09 to 10 h, an AUC(0-inf) ([1]; 0.3 to 10 mg/kg IV, read-out: geometric mean AUC0-∞, range over doses) of 2320 to 81400 ng·h/mL and a Cmax ([1]; 0.3 to 10 mg/kg IV, read-out: geometric mean Cmax, range over doses) of 609 to 20700 ng/mL. It also gave a Tmax ([1]; dose levels of 0.3, 1.0, and 10 mg/kg IV, post start of infusion, read-out: median tmax) of 1.93 h, a Cmax ([1]; 0.3 mg/kg IV, 2-hour infusion, read-out: Cmax (geometric mean)) of 609 ng/mL and a Cmax ([1]; 1.0 mg/kg IV, 2-hour infusion, read-out: Cmax (geometric mean)) of 1760 ng/mL. The Cmax ([1]; 10 mg/kg IV, 2-hour infusion, read-out: Cmax (geometric mean)) was 20700 ng/mL, the AUC ([2]; monkey, in vivo, 500 mg/kg/day) was 30600 ng·h/mL and the Cmax ([2]; monkey, in vivo, 500 mg/kg/day) was 24500 ng/mL. For the same compound, the NOAEL ([2]; monkey, in vivo, general toxicology) was 500 mg/kg/day, the “Fold Cover to NOAEL AUC, Monkey” value [2, 9] was 165 and the “Fold Cover to NOAEL Cmax, Monkey” value [2, 9] was 68. For the same compound, the “Fold Cover to NOAEL AUC, Monkey” value [2, 10] was 4.98, the “Fold Cover to NOAEL Cmax, Monkey” value [2, 10] was 2.02 and the “CLT (arithmetic mean)” value ([3]; 150 mg IV) was 9.34 L/h. For the same compound, the “geometric mean AUC0-t and AUC0-∞, IV relative to oral” value ([3]; 150 mg IV vs 150 mg oral) was “approximately 1.3 fold”, the “geometric mean Cmax, IV relative to oral” value ([3]; 150 mg IV vs 150 mg oral) was “approximately 1.9 fold” and the “maximum arithmetic mean plasma concentrations, IV relative to oral” value ([3]; 150 mg IV vs 150 mg oral) was “approximately 2 fold”. The “CLT/F (arithmetic mean)” value ([3]; 150 mg oral) was 12.8 L/h, the “absolute oral bioavailability based on AUC0-t (Percentage Test/Reference)” value ([3]; 150 mg oral vs 150 mg IV) was 74.3% and the “absolute oral bioavailability based on AUC0-∞ (Percentage Test/Reference)” value ([3]; 150 mg oral vs 150 mg IV) was 74.6%. It also gave a Vd ([3]; human, plasma, 150 mg IV, read-out: Vss (arithmetic mean)) of 30.2 L, a Vd ([3]; human, plasma, 150 mg IV, read-out: Vz (arithmetic mean)) of 59.4 L and a Cmax ([3]; human, plasma, 150 mg IV, 2-hour infusion) of 3380 ng/mL. It also gave an AUC(0-t) ([3]; human, plasma, 150 mg IV) of 13200 ng·h/mL, an AUC(0-inf) ([3]; human, plasma, 150 mg IV) of 13300 ng·h/mL and a Tmax ([3]; human, plasma, 150 mg IV) of 1.93 h. The half-life ([3]; human, plasma, 150 mg IV) was 4.54 h, the AUC(0-t) ([3]; human, plasma, 150 mg oral) was 9780 ng·h/mL and the AUC(0-inf) ([3]; human, plasma, 150 mg oral) was 9880 ng·h/mL. The Cmax ([3]; human, plasma, 150 mg oral) was 1790 ng/mL, the Vd/F ([3]; human, plasma, 150 mg oral, read-out: Vz/F (arithmetic mean)) was 123 L and the Tmax ([3]; human, plasma, 150 mg oral) was 2.75 h. For the same compound, the half-life ([3]; human, plasma, 150 mg oral) was 7.28 h, the tolerability (oral 150 mg capsule, healthy volunteers and Fabry patients) was “well tolerated” and the linearity of exposure (oral administrations) was “linear exposures to 1250 mg”. For the same compound, the tolerability (single dose administrations up to 2000 mg, healthy volunteers, Phase 1) was “well tolerated”, the “Fold Cover to AUC from human oral 1250 mg, Max” value [4, 11] was 62 and the “Fold Cover to AUC from human oral 1250 mg, Median” value [4, 11] was 39. For the same compound, the “Fold Cover to AUC from human oral 1250 mg, Min” value [4, 11] was 15.5, the “Fold Cover to Cmax from human oral 1250 mg, Max” value [4, 11] was 61 and the “Fold Cover to Cmax from human oral 1250 mg, Median” value [4, 11] was 36. The “Fold Cover to Cmax from human oral 1250 mg, Min” value [4, 11] was 2.6, the “Fold Cover to AUC from human oral 1250 mg, Max” value [4, 12] was 1.89 and the “Fold Cover to AUC from human oral 1250 mg, Median” value [4, 12] was 1.19. The “Fold Cover to AUC from human oral 1250 mg, Min” value [4, 12] was 0.47, the “Fold Cover to Cmax from human oral 1250 mg, Max” value [4, 12] was 1.81 and the “Fold Cover to Cmax from human oral 1250 mg, Median” value [4, 12] was 1.07. The “Fold Cover to Cmax from human oral 1250 mg, Min” value [4, 12] was 0.08, the “Fold Cover to NOAEL AUC, Rat” value [5, 9] was 134 and the “Fold Cover to NOAEL Cmax, Rat” value [5, 9] was 65. The “Fold Cover to NOAEL AUC, Rat” value [5, 10] was 4.05, the “Fold Cover to NOAEL Cmax, Rat” value [5, 10] was 1.93 and the AUC ([5]; rat, in vivo, 1500 mg/kg/day) was 24900 ng·h/mL. The Cmax ([5]; rat, in vivo, 1500 mg/kg/day) was 23400 ng/mL, the NOAEL ([5]; rat, in vivo, general toxicology) was 1500 mg/kg/day and the “tissue uptake of active α-Gal A into skin” value [6] was “improved tissue uptake of active α-Gal A into skin”.
